Laboratory results: paper PMC9013261 (Bioorganic Chemistry, 2021)
Converted amounts (≈) assume the structure as drawn.

Experiments:
[1] = tested on: Pseudomonas aeruginosa PAO1 (chloramphenicol-resistant); test: Broth microdilution antibacterial assay; format: cell-based; conditions: PAO1, read-out: MIC P. aeruginosa PAO1
[2] = tested on: Bacillus subtilis 168; test: Broth microdilution antibacterial assay; format: cell-based; conditions: Bacillus subtilis, 168, read-out: MIC B. subtilis 168
[3] = biological target: 3CLpro of SARS-CoV-2 (Severe acute respiratory syndrome coronavirus 2, UniProt P0DTD1); test: biochemical
[4] = tested on: Klebsiella pneumoniae ATCC 10031; test: Broth microdilution antibacterial assay; format: cell-based; conditions: ATCC10031, read-out: MIC K. pneumonia ATCC 10031
[5] = tested on: Staphylococcus epidermidis ATCC 35984 (methicillin-resistant); test: Broth microdilution antibacterial assay; format: cell-based; conditions: ATCC35984, read-out: MIC S. epidermidis ATCC 35984

Row | Compound | MIC [1] [µg/mL] | MIC [2] [µg/mL] | IC50 [3] [µM] | MIC [4] [µg/mL] | MIC [5] [µg/mL]
1 | CCCCCCCCCCCc1cc(O)cc(O)c1 [Compound 3, 5-undecyl-1,3-benzenediol] | > 64 | 1 (≈ 3.78 µM) | > 100 | 8 (≈ 30.3 µM) | 2 (≈ 7.56 µM)
2 | CCCCCCCCCCCCCCc1cc(O)cc(O)c1 [Compound 5, 5-tetradecyl-1,3-benzenediol] | > 64 | > 64 | > 100 | > 64 | > 64
3 | CCCCCCCC/C=C\CCCc1cc(O)cc(O)c1 [Compound 7, (Z)-5-(trideca-4-enyl)resorcinol] | > 64 | 1 (≈ 3.44 µM) | > 100 | > 64 | 4 (≈ 13.8 µM)
